Reference: patent publication US6864251B2, “Treatment of LTB4-mediated inflammatory disorders with optically-pure (R)-2,3-benzodiazepines” (Vela Pharmaceuticals, Inc., priority 2002, dated 2005)

How the values were obtained:
[1] = system: DSS-induced colitis; experiment: Dextran sulfate sodium induced colitis: mouse model of inflammatory bowel disease; format: in vivo, Swiss Webster mice; details: for Mean colon length CM ± SEM / Mean weight ± SEM, Day 0 / % weight change ± SEM, Day 8 / Mean weight ± SEM, Day 8 / % weight change ± SEM, Day 9 / Mean weight ± SEM, Day 9 / % weight change ± SEM, Day 10 / Mean weight ± SEM, Day 10 / Mean DAI* ± SEM / inhibition at 16 mg/kg / inhibition at 32 mg/kg / inhibition at 64 mg/kg / % of normal length: DSS 5%; for Mean DAI ± SEM: DSS 5% in tap water; for Mean DAI* ± SEM: DAI without weight loss parameter; for inhibition at 16 mg/kg / inhibition at 32 mg/kg / inhibition at 64 mg/kg: Mus musculus, read-out: Colon shortening inhib. %; for % of normal length: colon length
Procedure: In this model of colitis, an acute inflammation of the colon was produced by administration of dextran sulfate sodium (DSS) as a 5% solution in tap water. This colitis was characterized by histological events and an influx of neutrophils, macrophages and mediators of inflammation similar to those observed with human inflammatory bowel diseases. […] The following study was conducted in accordance with protocols of Okayasu et al., Gastroenterology, 98:694-702, 1990.
One hundred ten test animals (female, 6 week old Swiss Webster mice, 18-30 g) were divided into ten groups, selected to eliminate any statistical differences in mean group weight.
Each animal was dosed daily (IP) with either a test substance or vehicle, starting on Day 0. Beginning on Day 1, acute colon inflammation was induced by the administration ad libitum in drinking water of dextran sulfate sodium (DSS) as a 5% solution in tap water (10 mL/mouse/day for 5-6 days), with no other fluid source for animals in the DSS arm of the study. Filtered tap water was available ad libitum except for animals receiving 5% DSS as the sole source of fluid. After four days, signs of acute disease occured with the loss of weight, diarrhea and bloody stools. Histological changes included initial shortening of the crypts, then areas of separation of the crypts and the muscularis mucosae in the absence of destructive inflammatory filtrate. After five days, pathological changes became confluent with the appearance of erosions and early hyperplastic epithelium. Inflammation scores were high with neutrophils, lymphocytes, and plasma cells in the lamina propria but sparing the epithelium.
Test compounds were administered intraperitoneally (IP). Test compounds given during this period were evaluated for prophylactic activity and test compounds given after the disease state was established were evaluated for therapeutic activity.
Test animals were weighed daily from Day 0 to Day 8, or until completion of the study. The total duration of the study with DSS arm of the study was varied depending on the time progress of colitis. The condition of the test animals and consistency of stools was noted.
At the conclusion of the study, test animals were euthanized (CO2), a midline incision was made and a stool sample was obtained. The sample was placed on a slide and tested for occult blood (Quic-Cult™, Laboratory Diagnostics Co., Morganville, N.J.). Occult blood was determined by placing two drops of the reagent onto the sample and observing any color change. Occult blood presence was graded using a scoring protocol assigning a score of 0 for no color; 1 for a very light blue color (+/−) forming in >30 seconds; 2 for a blue color developing in 30 seconds or more (+); 3 for a change in color occurring in less than 30 seconds (++); and 4 for gross blood observable on the slide. The colon was gently stretched and the length from the colon-cecal junction to the end of the distal rectum was measured to the nearest 0.1 cm.
The scores for each test animal were added and then divided by three to give a DAI score for each animal.

[2] = target: LTB4 receptor (Cavia porcellus, UniProt H0VYV8); experiment: LTB4 binding assay, displacement of [3H]LTB4, guinea pig spleen membrane
LTB4 receptor, sequence (H0VYV8 1-348): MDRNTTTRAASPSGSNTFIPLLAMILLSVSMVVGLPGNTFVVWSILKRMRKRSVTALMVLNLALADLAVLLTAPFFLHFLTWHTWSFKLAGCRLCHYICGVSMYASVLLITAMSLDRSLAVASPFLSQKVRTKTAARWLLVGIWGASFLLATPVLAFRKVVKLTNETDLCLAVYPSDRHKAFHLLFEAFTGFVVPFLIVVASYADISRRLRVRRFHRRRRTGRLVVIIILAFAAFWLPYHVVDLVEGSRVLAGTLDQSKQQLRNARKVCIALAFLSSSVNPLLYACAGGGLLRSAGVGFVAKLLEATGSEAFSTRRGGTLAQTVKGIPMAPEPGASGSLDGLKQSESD
Procedure: Reactions were carried out in a phosphate buffer (pH 7.4) containing NaCl, MgCl2, EDTA, and bacitracin. The reaction volume of 150 μL containing 1.0 mg/mL of the Guinea pig spleen membrane preparation and 1 nM [^3H]LTB4, with or without a competitor, was incubated at 0-4° C. for 2 hours. Competitors included 2,3-benzodiazepines, and LTB4 as a control. The reaction was terminated by rapid vacuum filtration onto glass fiber filters. The filter was washed with cold buffer, dried and placed in a scintillation vial. Radioactivity trapped onto the filters was determined and compared to control values in order to ascertain any interactions of the test compound with the LTB4 binding site.

Row | SMILES | Mean colon length CM ± SEM ([1]; 16 mg/kg IP daily) [CM] | Mean DAI ± SEM ([1]; 16 mg/kg IP daily) | Mean weight ± SEM, Day 0 ([1]; 16 mg/kg IP daily) [g] | % weight change ± SEM, Day 8 ([1]; 16 mg/kg IP daily) [%] | Mean weight ± SEM, Day 8 ([1]; 16 mg/kg IP daily) [g] | % weight change ± SEM, Day 9 ([1]; 16 mg/kg IP daily) [%] | Mean weight ± SEM, Day 9 ([1]; 16 mg/kg IP daily) [g] | % weight change ± SEM, Day 10 ([1]; 16 mg/kg IP daily) [%] | Mean weight ± SEM, Day 10 ([1]; 16 mg/kg IP daily) [g] | Mean colon length CM ± SEM ([1]; 32 mg/kg IP daily) [CM] | Mean DAI ± SEM ([1]; 32 mg/kg IP daily) | Mean weight ± SEM, Day 0 ([1]; 32 mg/kg IP daily) [g] | % weight change ± SEM, Day 8 ([1]; 32 mg/kg IP daily) [%] | Mean weight ± SEM, Day 8 ([1]; 32 mg/kg IP daily) [g] | % weight change ± SEM, Day 9 ([1]; 32 mg/kg IP daily) [%] | Mean weight ± SEM, Day 9 ([1]; 32 mg/kg IP daily) [g] | % weight change ± SEM, Day 10 ([1]; 32 mg/kg IP daily) [%] | Mean weight ± SEM, Day 10 ([1]; 32 mg/kg IP daily) [g] | Mean colon length CM ± SEM ([1]; 64 mg/kg IP daily) [CM] | Mean DAI ± SEM ([1]; 64 mg/kg IP daily) | also measured
1 | CCC1C(C)=NN=C(c2ccc(OC)c(OC)c2)c2cc(OC)c(OC)cc21 (racemic) [Racemic tofisopam, Racemic-1-(3,4-dimethoxyphenyl)-4-methyl-5-ethyl-7,8-dimethoxy-5H-2,3-benzodiazepine] | 8.2 ± 0.32 | 2.59 ± 0.27 | 25.9 ± 0.4 | 3.1 ± 1.5 | 25.1 ± 0.6 | 7.4 ± 2.5 | 24.0 ± 0.8 | 13.3 ± 3.1 | 22.5 ± 1.0 | 8.3 ± 0.11 | 2.37 ± 0.33 | 26.1 ± 0.4 | 1.8 ± 1.5 | 25.6 ± 0.4 | 5.3 ± 2.0 | 24.7 ± 0.6 | 8.0 ± 2.4 | 24.0 ± 0.7 | 8.2 ± 0.18 | 2.87 ± 0.31 | Mean weight ± SEM, Day 0 ([1]; 64 mg/kg IP daily): 25.8 ± 0.3 g; % weight change ± SEM, Day 8 ([1]; 64 mg/kg IP daily): 1.2 ± 2.1%; Mean weight ± SEM, Day 8 ([1]; 64 mg/kg IP daily): 25.5 ± 0.7 g; % weight change ± SEM, Day 9 ([1]; 64 mg/kg IP daily): 5.1 ± 2.5%; Mean weight ± SEM, Day 9 ([1]; 64 mg/kg IP daily): 24.5 ± 0.8 g; % weight change ± SEM, Day 10 ([1]; 64 mg/kg IP daily): 8.9 ± 3.1%; Mean weight ± SEM, Day 10 ([1]; 64 mg/kg IP daily): 23.5 ± 0.9 g; Mean DAI* ± SEM ([1]; 16 mg/kg IP daily): 2.61 ± 0.30; Mean DAI* ± SEM ([1]; 32 mg/kg IP daily): 2.65 ± 0.28; Mean DAI* ± SEM ([1]; 64 mg/kg IP daily): 3.25 ± 0.26; inhibition at 16 mg/kg ([1]; 16 mg/kg IP daily): 7%; inhibition at 32 mg/kg ([1]; 32 mg/kg IP daily): 9%; inhibition at 64 mg/kg ([1]; 64 mg/kg IP daily): 7%; % of normal length ([1]; 16 mg/kg IP daily): 65.4%; % of normal length ([1]; 32 mg/kg IP daily): 66.7%; % of normal length ([1]; 64 mg/kg IP daily): 65.5%; Ki [2]: 4.52 µM
2 | CC[C@H]1C(C)=NN=C(c2ccc(OC)c(OC)c2)c2cc(OC)c(OC)cc21 [(R)-tofisopam, (R)-1-(3,4-dimethoxyphenyl)-4-methyl-5-ethyl-7,8-dimethoxy-5H-2,3-benzodiazepine] | 9.0 ± 0.28 | 2.22 ± 0.34 | 26.1 ± 0.5 | 0.0 ± 1.4 | 26.1 ± 0.6 | 3.3 ± 1.8 | 25.2 ± 0.6 | 5.4 ± 3.4 | 24.7 ± 1.0 | 8.9 ± 0.41 | 2.33 ± 0.28 | 25.0 ± 0.4 | 0.8 ± 1.6 | 26.2 ± 0.4 | 1.9 ± 2.1 | 25.5 ± 0.6 | 4.4 ± 2.1 | 24.6 ± 0.6 | 9.8 ± 0.35 | 1.73 ± 0.27^1 | Protection from the LTB4-mediated inflammatory responses to DSS-induced colitis ([1]; 64 mg per kg, based on colon length and DAI): significant protection; Mean weight ± SEM, Day 0 ([1]; 64 mg/kg IP daily): 26.2 ± 0.5 g; % weight change ± SEM, Day 8 ([1]; 64 mg/kg IP daily): 0.1 ± 1.9%; Mean weight ± SEM, Day 8 ([1]; 64 mg/kg IP daily): 26.2 ± 0.5 g; % weight change ± SEM, Day 9 ([1]; 64 mg/kg IP daily): 2.9 ± 1.9%; Mean weight ± SEM, Day 9 ([1]; 64 mg/kg IP daily): 25.4 ± 0.5 g; % weight change ± SEM, Day 10 ([1]; 64 mg/kg IP daily): 2.8 ± 2.5%; Mean weight ± SEM, Day 10 ([1]; 64 mg/kg IP daily): 25.4 ± 0.5 g; Mean DAI* ± SEM ([1]; 16 mg/kg IP daily): 2.61 ± 0.37; Mean DAI* ± SEM ([1]; 32 mg/kg IP daily): 2.75 ± 0.26; Mean DAI* ± SEM ([1]; 64 mg/kg IP daily): 2.20 ± 0.26^1; inhibition at 16 mg/kg ([1]; 16 mg/kg IP daily): 24%; inhibition at 32 mg/kg ([1]; 32 mg/kg IP daily): 22%; inhibition at 64 mg/kg ([1]; 64 mg/kg IP daily): 41%; % of normal length ([1]; 16 mg/kg IP daily): 72.4%; % of normal length ([1]; 32 mg/kg IP daily): 71.3%; % of normal length ([1]; 64 mg/kg IP daily): 78.5%; Ki [2]: 0.444 µM
3 | CC[C@@H]1C(C)=NN=C(c2ccc(OC)c(OC)c2)c2cc(OC)c(OC)cc21 [(S)-tofisopam, (S)-1-(3,4-dimethoxyphenyl)-4-methyl-5-ethyl-7,8-dimethoxy-5H-2,3-benzodiazepine] | 8.4 ± 0.19 | 2.37 ± 0.24 | 26.0 ± 0.4 | 0.0 ± 1.5 | 26.0 ± 0.5 | 1.5 ± 1.5 | 25.6 ± 0.5 | 5.4 ± 1.6 | 24.6 ± 0.6 | 8.1 ± 0.19 | 3.07 ± 0.25 | 25.9 ± 0.4 | 3.0 ± 0.6 | 25.1 ± 0.6 | 4.9 ± 2.4 | 24.6 ± 0.6 | 10.4 ± 3.2 | 23.2 ± 0.9 | 8.2 ± 0.20 | 2.78 ± 0.27 | Mean weight ± SEM, Day 0 ([1]; 64 mg/kg IP daily): 25.9 ± 0.4 g; % weight change ± SEM, Day 8 ([1]; 64 mg/kg IP daily): 1.2 ± 1.5%; Mean weight ± SEM, Day 8 ([1]; 64 mg/kg IP daily): 25.8 ± 0.6 g; % weight change ± SEM, Day 9 ([1]; 64 mg/kg IP daily): 6.9 ± 1.8%; Mean weight ± SEM, Day 9 ([1]; 64 mg/kg IP daily): 24.1 ± 0.5 g; % weight change ± SEM, Day 10 ([1]; 64 mg/kg IP daily): 10.4 ± 1.7%; Mean weight ± SEM, Day 10 ([1]; 64 mg/kg IP daily): 23.2 ± 0.6 g; Mean DAI* ± SEM ([1]; 16 mg/kg IP daily): 2.85 ± 0.18; Mean DAI* ± SEM ([1]; 32 mg/kg IP daily): 3.60 ± 0.30; Mean DAI* ± SEM ([1]; 64 mg/kg IP daily): 2.94 ± 0.24; inhibition at 16 mg/kg ([1]; 16 mg/kg IP daily): 11%; inhibition at 32 mg/kg ([1]; 32 mg/kg IP daily): 4%; inhibition at 64 mg/kg ([1]; 64 mg/kg IP daily): 7%; % of normal length ([1]; 16 mg/kg IP daily): 67.3%; % of normal length ([1]; 32 mg/kg IP daily): 64.9%; % of normal length ([1]; 64 mg/kg IP daily): 65.4%; Ki [2]: 76 µM
